Experimental data: PMC11403733, “Asymmetric Dirhodium-Catalyzed Modification of Immunomodulatory Imide Drugs and Their Biological Assessment” (ACS Medicinal Chemistry Letters, 2024)
Where “and” joins values, the source holds several entries; their conditions need not be identical. Equal values may be shown once.

Columns and labels:
GSPT1 = molecular target: T1, GSPT1 (Homo sapiens, UniProt P15170+Q96SW2); test: ePL degradation assay, DF15/GSPT1 ePL OE cells; assay type: cell-based; settings: N ≥ 3; for EC50: degradation, 20 hr incubation, top conc 10 uM; for GSPT1 Ymin: depth of degradation (100% = no reduction, 0% = complete degradation), 20 hr
T1 construct: expressed in transfected cells; host or cells: DF15
T1 sequence (P15170 1-637 isoform P15170-3): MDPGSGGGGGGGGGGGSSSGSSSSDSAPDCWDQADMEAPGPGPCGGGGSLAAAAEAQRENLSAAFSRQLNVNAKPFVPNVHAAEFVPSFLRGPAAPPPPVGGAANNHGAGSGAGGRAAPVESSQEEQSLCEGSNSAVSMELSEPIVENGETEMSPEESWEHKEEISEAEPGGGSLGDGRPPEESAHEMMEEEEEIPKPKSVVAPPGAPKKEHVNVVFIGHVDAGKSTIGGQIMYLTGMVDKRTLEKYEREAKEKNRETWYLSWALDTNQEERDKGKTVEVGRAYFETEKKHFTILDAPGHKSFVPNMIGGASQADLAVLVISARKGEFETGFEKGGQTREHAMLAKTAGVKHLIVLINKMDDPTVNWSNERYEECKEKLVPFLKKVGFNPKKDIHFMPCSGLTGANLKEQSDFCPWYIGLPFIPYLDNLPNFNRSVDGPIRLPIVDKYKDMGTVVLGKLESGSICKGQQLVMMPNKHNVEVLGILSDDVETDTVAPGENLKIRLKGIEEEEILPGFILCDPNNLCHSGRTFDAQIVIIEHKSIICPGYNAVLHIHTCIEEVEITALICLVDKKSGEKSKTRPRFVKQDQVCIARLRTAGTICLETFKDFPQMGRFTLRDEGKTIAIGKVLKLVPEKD
T1 sequence (Q96SW2 whole entry): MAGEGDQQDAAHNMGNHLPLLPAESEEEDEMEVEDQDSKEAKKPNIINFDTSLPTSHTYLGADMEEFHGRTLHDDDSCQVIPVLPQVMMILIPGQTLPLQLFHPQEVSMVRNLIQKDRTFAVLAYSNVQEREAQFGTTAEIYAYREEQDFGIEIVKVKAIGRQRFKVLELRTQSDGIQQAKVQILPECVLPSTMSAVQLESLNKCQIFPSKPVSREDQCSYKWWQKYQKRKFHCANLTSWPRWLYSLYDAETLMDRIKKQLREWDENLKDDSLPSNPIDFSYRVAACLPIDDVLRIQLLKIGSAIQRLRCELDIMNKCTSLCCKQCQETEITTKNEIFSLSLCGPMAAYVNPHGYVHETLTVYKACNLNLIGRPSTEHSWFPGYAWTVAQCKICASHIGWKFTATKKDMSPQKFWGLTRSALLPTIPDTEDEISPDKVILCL
T1 sequence (Q16531 whole entry partner): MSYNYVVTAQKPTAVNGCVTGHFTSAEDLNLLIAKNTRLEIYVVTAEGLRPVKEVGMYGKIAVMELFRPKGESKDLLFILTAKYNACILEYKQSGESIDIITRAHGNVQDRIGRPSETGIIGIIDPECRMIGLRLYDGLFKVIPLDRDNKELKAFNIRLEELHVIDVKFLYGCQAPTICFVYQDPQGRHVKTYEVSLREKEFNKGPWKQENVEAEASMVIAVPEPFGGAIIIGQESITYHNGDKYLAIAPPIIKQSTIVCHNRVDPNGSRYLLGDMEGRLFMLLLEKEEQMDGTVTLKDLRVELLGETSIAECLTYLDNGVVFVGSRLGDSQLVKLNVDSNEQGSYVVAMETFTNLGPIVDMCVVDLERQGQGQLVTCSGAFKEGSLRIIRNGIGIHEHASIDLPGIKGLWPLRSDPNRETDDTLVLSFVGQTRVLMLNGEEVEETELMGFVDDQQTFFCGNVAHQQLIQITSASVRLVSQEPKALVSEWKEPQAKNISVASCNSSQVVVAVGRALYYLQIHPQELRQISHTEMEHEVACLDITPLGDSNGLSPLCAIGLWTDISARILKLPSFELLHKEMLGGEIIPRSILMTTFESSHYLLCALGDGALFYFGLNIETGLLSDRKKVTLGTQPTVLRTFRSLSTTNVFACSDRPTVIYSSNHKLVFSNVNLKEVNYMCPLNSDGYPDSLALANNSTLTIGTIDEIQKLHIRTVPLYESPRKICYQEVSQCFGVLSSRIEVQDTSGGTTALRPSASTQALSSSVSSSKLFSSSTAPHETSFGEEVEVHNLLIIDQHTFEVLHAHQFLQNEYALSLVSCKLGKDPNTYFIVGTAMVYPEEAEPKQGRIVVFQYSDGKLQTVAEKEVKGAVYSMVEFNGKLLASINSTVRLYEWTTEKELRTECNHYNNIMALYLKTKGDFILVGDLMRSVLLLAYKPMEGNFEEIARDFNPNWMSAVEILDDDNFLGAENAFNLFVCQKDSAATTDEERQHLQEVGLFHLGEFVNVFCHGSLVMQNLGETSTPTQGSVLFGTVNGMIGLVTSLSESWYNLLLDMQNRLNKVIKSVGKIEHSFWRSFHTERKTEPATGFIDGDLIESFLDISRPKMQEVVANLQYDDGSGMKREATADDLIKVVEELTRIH
Description: (§1) Section 6: Assay Protocols
(§2) Fluorescence Resonance Energy Transfer-Based NSD@ PWWP Cereblon Binding Assay. […]
(§3) Compounds for testing were spotted into a 1536 well plate (Greiner Cat#782075). CRBN and Tracer solution were incubated in compound wells for 20 minutes. Detection mix containing Anti6xHis Tb Crytate (CisBio Cat#61HI2TLF) was then added to assay wells for a final 0.5x assay concentration of detection antibody (stock is provided at 400x). Plates were incubated for 30 minutes before being read on Pherastar FSX plate reader using TR-FRET module (Excitation 340nm, Emssion 615/665nm). ePL and HiBiT degradation assays
(§4) DF15 cells overexpressing ePL tagged GSPT1 (DF15/GSPT1 ePL OE) was used to monitor the degradation of GSPT1 induced by experimental compounds. MDS-L cells overexpressing ePL tagged CK1α and GSPT1G575N (MDS-L/CK1α ePL OE_ GSPT1G575N OE) was used to monitor the degradation of CK1α induced by experimental compounds. NCCIT cells with HiBiT tag knocked in at the c-terminus of SALL4 (NCCIT/SALL4-HiBiT KI) was used to monitor the degradation of SALL4 induced by experimental compounds. DF15 cells with HiBiT tag knocked in at the n-terminus of IKZF3 (DF15/HiBiT-IKZF3 KI) was used to monitor the degradation of AIOLOS (IKZF3) induced by experimental compounds. […]
(§5) The cell culture medium recipes, seeding densities and compound incubation time with cells are […]
(§6) Ta r g e t Cell line Cell culture medium Seeding Compound
(§7) (HI) FBS, 1mM sodium pyruvate, 25mM Hepes, 0.1% pluronic acid,
(§8) GSPT1G575N OE ng/mL of human recombinant IL3 […]
(§9) sodium pyruvate, 25mM Hepes, 0.1% pluronic acid, 1X NEAA
(§10) For all degradation assays, compounds were pre-spotted in a 153 6 well plate (Corning 3727) starting at 10uM with 3-fold serial dilution down 11 points in replicates using an Echo 650 series acoustic liquid handler. 5uL/well cells were seeded in the assay ready plate at the density and in […]
(§11) The final DMSO concentration in the cell culture was 0.25%. The plates were equilibrated at room temperature for 30 minutes before putting into a 37 °C CO2 incubator. After appropriate incubation period, plates were retrieved from the incubator and set at room temperature to equilibrate for 30 minutes, before adding ePL or HiBiT detection reagent. For ePL detection, the pre-prepared mixture of EA reagent, lysis buffer, and substrate reagent at ratio 1:1:4 from the DiscoverX InCELL Detection Kit (Eurofins 96-0079L) according to the manufacturer ’s recommendation was added 3ul/well into the plate. Plates were incubated in the dark for 1hr at room temperature before reading using a BMG PheraStar luminescence reader. For HiBiT detection, Nano-Glo HiBiT Lytic Reagent (Promega, N3050) prepared according to the manufacturer ’s recommendation was added 3 uL/well into the plate. Plates were incubated 30 minutes at room temperature in the dark before reading using a BMG PheraStar […]
(§12) To determine EC50 values for degradation, a four parameter logistic model (Sigmoidal Dose-Response Model) (FIT= (A+((B-A)/1+((C/x)^D)))) C is the inflection point (EC50), D is […] , A and B are the low and high limits of the fit respectively) was used to determine the compound’s EC50 value, which is the half maximum effective concentration. In the degradation assays, the Yconst of each compound was calculated by normalizing the lowest point of the fitted curve to the media only control, which is 0%, and the cells treated with DMSO control, which is 100%. All degradation curves were processed and evaluated using Dotmatics.
(§13) Section 7: Biological Data Tables

SALL4 = molecular target: T2, SALL4 (Homo sapiens, UniProt Q96SW2+Q9UJQ4); test: HiBiT degradation assay, NCCIT/SALL4-HiBiT KI cells; assay type: cell-based; settings: N ≥ 3; for EC50: degradation, 2 hr incubation, top conc 10 uM; for SALL4 Ymin: depth of degradation (100% = no reduction, 0% = complete degradation), 2 hr
T2 construct: endogenous in cells; host or cells: NCCIT (HiBiT knock-in)
T2 sequence (Q9UJQ4 whole entry): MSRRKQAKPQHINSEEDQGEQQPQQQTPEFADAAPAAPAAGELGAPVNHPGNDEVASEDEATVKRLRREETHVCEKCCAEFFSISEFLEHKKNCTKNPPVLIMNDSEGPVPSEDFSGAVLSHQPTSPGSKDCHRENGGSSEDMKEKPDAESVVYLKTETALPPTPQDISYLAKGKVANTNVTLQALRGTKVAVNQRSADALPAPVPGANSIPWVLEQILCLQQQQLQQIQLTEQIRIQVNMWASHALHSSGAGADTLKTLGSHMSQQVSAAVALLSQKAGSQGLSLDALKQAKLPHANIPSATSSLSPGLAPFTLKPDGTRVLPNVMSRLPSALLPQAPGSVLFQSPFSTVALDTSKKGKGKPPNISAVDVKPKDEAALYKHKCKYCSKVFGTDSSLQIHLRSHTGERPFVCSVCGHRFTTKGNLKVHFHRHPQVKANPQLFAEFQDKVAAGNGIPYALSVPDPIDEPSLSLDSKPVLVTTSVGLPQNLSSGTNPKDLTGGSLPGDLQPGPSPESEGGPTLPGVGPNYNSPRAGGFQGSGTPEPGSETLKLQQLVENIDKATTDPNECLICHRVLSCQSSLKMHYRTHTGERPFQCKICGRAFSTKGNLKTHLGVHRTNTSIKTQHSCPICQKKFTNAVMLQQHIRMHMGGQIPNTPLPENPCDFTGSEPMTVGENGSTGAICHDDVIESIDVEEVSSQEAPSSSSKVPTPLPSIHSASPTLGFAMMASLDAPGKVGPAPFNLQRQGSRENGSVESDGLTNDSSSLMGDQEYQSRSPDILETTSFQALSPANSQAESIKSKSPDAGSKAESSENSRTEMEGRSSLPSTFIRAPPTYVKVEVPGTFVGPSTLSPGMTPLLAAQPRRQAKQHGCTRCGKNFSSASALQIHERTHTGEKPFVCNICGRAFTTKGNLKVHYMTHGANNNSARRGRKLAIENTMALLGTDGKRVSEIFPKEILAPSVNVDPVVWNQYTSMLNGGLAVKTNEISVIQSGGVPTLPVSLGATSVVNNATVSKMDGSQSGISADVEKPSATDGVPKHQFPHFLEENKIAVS
T2 sequence (Q96SW2 whole entry): as the sequence (Q96SW2 whole entry) above
T2 sequence (Q16531 whole entry partner): as the sequence (Q16531 whole entry partner) above
Description: as §1, §2, §3, §4, §5, §6, §7, §8, §9, §10, §11, §12, §13

IKZF3 (Aiolos) = molecular target: T3, IKZF3 (Aiolos) (Homo sapiens, UniProt Q96SW2+Q9UKT9); test: HiBiT degradation assay, DF15/HiBiT-IKZF3 KI cells; assay type: cell-based; settings: N ≥ 3; for EC50: degradation, 4 hr incubation, top conc 10 uM; for IKZF3 Ymin: depth of degradation (100% = no reduction of protein level, 0% = complete degradation), 4 hr
T3 construct: endogenous in cells; host or cells: DF15 (HiBiT knock-in)
T3 sequence (Q9UKT9 whole entry): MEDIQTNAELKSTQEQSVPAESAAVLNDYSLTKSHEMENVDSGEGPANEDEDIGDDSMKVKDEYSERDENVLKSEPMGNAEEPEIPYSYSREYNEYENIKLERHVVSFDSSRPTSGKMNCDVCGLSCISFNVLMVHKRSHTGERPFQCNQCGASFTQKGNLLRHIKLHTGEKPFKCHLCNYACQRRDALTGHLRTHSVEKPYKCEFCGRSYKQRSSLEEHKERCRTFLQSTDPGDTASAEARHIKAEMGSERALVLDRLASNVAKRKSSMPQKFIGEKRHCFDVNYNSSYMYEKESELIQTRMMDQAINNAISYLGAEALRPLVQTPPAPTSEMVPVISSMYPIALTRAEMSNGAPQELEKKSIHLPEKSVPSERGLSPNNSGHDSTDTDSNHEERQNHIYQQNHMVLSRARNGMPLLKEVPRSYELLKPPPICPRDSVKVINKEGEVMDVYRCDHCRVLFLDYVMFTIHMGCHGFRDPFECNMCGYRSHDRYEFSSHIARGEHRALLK
T3 sequence (Q96SW2 whole entry): as the sequence (Q96SW2 whole entry) above
T3 sequence (Q16531 whole entry partner): as the sequence (Q16531 whole entry partner) above
Description: as §1, §2, §3, §4, §5, §6, §7, §8, §9, §10, §11, §12, §13

CRBN = molecular target: T4, CRBN (Homo sapiens, UniProt Q96SW2); test: Fluorescence Resonance Energy Transfer-Based Cereblon Binding Assay (CRBN HTRF); settings: 0.5 nM 6×His-CRBN-DDB1, 20 nM tracer CC0782985, TR-FRET
T4 construct: (CRBN a.a. 1−442, DDB1 a.a); made in house
T4 sequence (Q96SW2 whole entry): as the sequence (Q96SW2 whole entry) above
T4 sequence (Q16531 whole entry partner): as the sequence (Q16531 whole entry partner) above
Description: as §1, §2, §3, §4

CK1α = molecular target: T5, CK1α (Homo sapiens, UniProt P48729+Q96SW2); test: ePL degradation assay, MDS-L/CK1α ePL OE_GSPT1G575N OE cells; assay type: cell-based; settings: for EC50: degradation, 4 hr incubation, top conc 10 uM, N ≥ 3, read-out: CK1a EC50; for CK1a Ymin: depth of degradation (100% = no reduction, 0% = complete degradation), 4 hr, N ≥ 3
T5 construct: expressed in transfected cells; host or cells: MDS-L
T5 sequence (P48729 whole entry): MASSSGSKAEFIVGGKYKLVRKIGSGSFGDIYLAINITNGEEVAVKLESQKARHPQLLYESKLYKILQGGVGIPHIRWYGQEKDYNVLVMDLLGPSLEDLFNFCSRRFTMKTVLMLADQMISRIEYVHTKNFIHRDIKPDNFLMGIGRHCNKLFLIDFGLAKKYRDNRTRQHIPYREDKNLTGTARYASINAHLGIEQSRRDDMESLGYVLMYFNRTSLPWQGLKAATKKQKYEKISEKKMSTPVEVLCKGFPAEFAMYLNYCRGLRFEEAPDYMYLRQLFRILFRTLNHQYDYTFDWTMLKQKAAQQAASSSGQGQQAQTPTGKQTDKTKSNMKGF
T5 sequence (Q96SW2 whole entry): as the sequence (Q96SW2 whole entry) above
T5 sequence (Q16531 whole entry partner): as the sequence (Q16531 whole entry partner) above
Description: as §1, §2, §3, §4, §5, §6, §7, §8, §9, §10, §11, §12, §13

Row | SMILES | EC50 (GSPT1) | GSPT1 Ymin (GSPT1) [%] | EC50 (SALL4) [µM] | SALL4 Ymin (SALL4) [%] | EC50 (IKZF3 (Aiolos)) | IC50 (CRBN) [µM] | EC50 (CK1α) [µM] | CK1a Ymin (CK1α) [%] | IKZF3 Ymin (IKZF3 (Aiolos))
1 | O=C1CCC(N2Cc3c(cccc3[C@@H]3C[C@]3(C(=O)OCC(Cl)(Cl)Cl)c3ccc(Br)cc3)C2=O)C(=O)N1 (stereo partly drawn) [Compound 13a] | > 10 µM | 92 ± 7.8 | > 10 | 85 ± 7.3 | > 10 µM and 1.86 µM | 0.66 | > 10 | 87 ± 0.55 | 
2 | O=C1CCC(N2Cc3c(cccc3[C@H]3C[C@@]3(C(=O)OCC(Cl)(Cl)Cl)c3ccc(Br)cc3)C2=O)C(=O)N1 (stereo partly drawn) [Compound 13b] | > 10 µM | 99 ± 2.2 | > 10 | 97 ± 3.1 | > 10 µM | 2.4 | > 10 | 90 ± 7.1 | 97 ± 4.9%
3 | O=C1CCC(N2C(=O)c3cccc([C@@H]4C[C@]4(C(=O)OCC(Cl)(Cl)Cl)c4ccc(Br)cc4)c3C2=O)C(=O)N1 (stereo partly drawn) [Compound 14a] | > 10 µM | 91 ± 16 | > 10 | 91 ± 8.0 | > 10 µM | > 10 | > 10 | 92 ± 3.8 | 89 ± 3.2%
4 | O=C1CCC(N2C(=O)c3cccc([C@H]4C[C@@]4(C(=O)OCC(Cl)(Cl)Cl)c4ccc(Br)cc4)c3C2=O)C(=O)N1 (stereo partly drawn) [Compound 14b] | > 10 µM | 87 ± 11 | > 10 | 87 ± 13 | > 10 µM | 7.9 | > 10 | 94 ± 5.1 | 
5 | O=C1CCC(N2Cc3cc([C@@H]4C[C@]4(C(=O)OCC(Cl)(Cl)Cl)c4ccc(Br)cc4)ccc3C2=O)C(=O)N1 (stereo partly drawn) [Compound 15a] | > 10 µM | 96 ± 7.8 | > 10 | 99 ± 1.2 | > 10 µM | 0.39 | > 10 |  | 100 ± 4.6%
6 | O=C1CCC(N2Cc3cc([C@H]4C[C@@]4(C(=O)OCC(Cl)(Cl)Cl)c4ccc(Br)cc4)ccc3C2=O)C(=O)N1 (stereo partly drawn) [Compound 15b] | > 10 µM | 83 ± 7.0 | 0.16 ± 0.05 | 67 ± 5.4 | > 10 µM | 1.3 | 0.22 ± 0.089 |  | 89 ± 5.0%
7 | O=C1CCC(N2C(=O)c3ccc([C@@H]4C[C@]4(C(=O)OCC(Cl)(Cl)Cl)c4ccc(Br)cc4)cc3C2=O)C(=O)N1 (stereo partly drawn) [Compound 16a] | > 10 µM |  | > 10 | 92 ± 8.2 | > 10 µM | 5.3 | > 10 | 94 ± 9.9 | 94 ± 8.3%
8 | O=C1CCC(N2C(=O)c3ccc([C@H]4C[C@@]4(C(=O)OCC(Cl)(Cl)Cl)c4ccc(Br)cc4)cc3C2=O)C(=O)N1 (stereo partly drawn) [Compound 16b] | > 10 µM and 3.1 µM |  | 0.41 ± 0.16 | 60 ± 6.1 | > 10 µM | > 10 | > 10 | 85 ± 4.1 | 97 ± 3.6%
9 | O=C1CCC(N2Cc3ccc([C@@H]4C[C@]4(C(=O)OCC(Cl)(Cl)Cl)c4ccc(Br)cc4)cc3C2=O)C(=O)N1 (stereo partly drawn) [Compound 17a] | > 10 µM | 95 ± 5.4 | > 10 | 97 ± 2.2 | > 10 µM | 2.1 | > 10 | 98 ± 12 | 95 ± 7.6%
10 | O=C1CCC(N2Cc3ccc([C@H]4C[C@@]4(C(=O)OCC(Cl)(Cl)Cl)c4ccc(Br)cc4)cc3C2=O)C(=O)N1 (stereo partly drawn) [Compound 17b] | > 10 µM | 93 ± 5.8 | > 10 | 96 ± 3.1 | > 10 µM | 2.5 | > 10 | 96 ± 12 | 89 ± 6.5%
11 | O=C1CCC(N2Cc3cccc([C@@H]4C[C@]4(C(=O)OCC(Cl)(Cl)Cl)c4ccc(Br)cc4)c3C2=O)C(=O)N1 (stereo partly drawn) [Compound 18a] | > 10 µM | 87 ± 6.5 | > 10 | 93 ± 3.8 | > 10 µM | > 10 | > 10 | 89 ± 1.7 | 91 ± 0.6%
12 | O=C1CCC(N2C(=O)c3cccc(C4=C[C@@]4(C(=O)OCC(Cl)(Cl)Cl)c4ccc(Br)cc4)c3C2=O)C(=O)N1 (stereo partly drawn) [Compound 20b] | 5.1 ± 1.4 µM | 17 ± 13 | 2.8 ± 1.6 | 57 ±7.7 | 3.7 µM and 3.67 µM |  | 2.1 ± 1.3 | 54 ± 8.9 | 10 ± 8.2% and 10%
13 | O=C1CCC(N2C(=O)c3ccc(C4=C[C@@]4(C(=O)OCC(Cl)(Cl)Cl)c4ccc(Br)cc4)cc3C2=O)C(=O)N1 (stereo partly drawn) [Compound 22b] |  |  | 2.4 ± 1.7 | 58 ± 3.2 | 0.31 ± 0.11 µM | 7.8 | 1.6 ± 0.71 | 55 ± 39 | 71 ± 9.7%
